Test results: patent US20200338040A1, “METHODS FOR TREATING ALZHEIMER'S DISEASE AND RELATED DISORDERS” (The General Hospital Corporation, priority 2015, published 2020)
Where a name gives a salt, the structure may show the parent alone.

Legend:
[1] = clinical; details: human, in vivo, po, 10 mg, average Cmax of ibuprofen in the CSF
Experimental: The evaluation of the plasma and CSF levels in 24 human subjects under an IND and a phase I study followed a 10 mg or 20 mg oral administration to healthy volunteers (age 55-79).

[2] = cited from earlier work
[3] = molecular target: T1, Aβ42 (Homo sapiens, UniProt P05067); test: Aβ42 fibril formation by transmission electron microscopy; assay type: biochemical
T1 construct: Aberrant Aβ peptide isoforms that are 40 or 42 amino acids in length (Aβ-40/42); host or cells: synthetic
T1 sequence (P05067 672-713 limits assumed): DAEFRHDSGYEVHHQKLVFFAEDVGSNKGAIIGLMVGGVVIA
Experimental: The anti-fibrillogenic properties of cromolyn was confirmed by performing TEM analysis. […] After incubation for 48 hours, 15 μl or the Aβ42 fibril solution were adsorbed on carbon-coated EM grids for 20 min. at room temperature. After 3 washes in sterile PBS and ddH2O, the grids were allowed to dry before negative staining with 2% (w/v) uranyl-acetate water, two times for 8 min. Each grid was then briefly washed in degassed ddH2O, air dried, and imaged by TEM at a magnification of 150,000×.

[4] = system: Aβ oligomers; test: 82E1/82E1 ELISA of Aβ oligomers in TBS soluble brain fraction of APP/PS1 mice; assay type: in vivo, mouse; details: one week i.p. treatment
[5] = molecular target: T2, Aβx-40 (Homo sapiens, UniProt P05067); test: Brain extract sandwich ELISA in APP/PS1 mice, Aβx-40; assay type: in vivo, mouse; details: for content of TBS-soluble Aβx-40 / total level of TBS soluble Aβx-40 after 0.5 M Gdn-HCl: seven days; for content of TBS-soluble Aβx-40: APP/PS1 mice; for total level of TBS soluble Aβx-40 after 0.5 M Gdn-HCl: guanidine 37° C. 30 min
T2 construct: commercially available kits BNT77/BA27 for Aβ40 or BNT77/BC05 for Aβx-42; from tissue; host or cells: brain extracts (TBS, Triton, SDS) or hippocampal interstitial fluid of APPswe/PS1dE9 mice
T2 sequence (P05067 672-711 limits assumed): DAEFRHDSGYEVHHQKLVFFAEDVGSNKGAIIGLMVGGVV

[6] = system: Aβ peptides; test: Binding to Aβ peptides
[7] = molecular target: T3, Aβx-42 (Homo sapiens, UniProt P05067); test: Brain extract sandwich ELISA in APP/PS1 mice, Aβx-42; assay type: in vivo, mouse; details: for content of TBS-soluble Aβx-42 / total level of TBS soluble Aβx-42 after 0.5 M Gdn-HCl: seven days; for content of TBS-soluble Aβx-42: APP/PS1 mice; for total level of TBS soluble Aβx-42 after 0.5 M Gdn-HCl: guanidine 37° C. 30 min
T3 construct: commercially available kits BNT77/BA27 for Aβ40 or BNT77/BC05 for Aβx-42; from tissue; host or cells: brain extracts (TBS, Triton, SDS) or hippocampal interstitial fluid of APPswe/PS1dE9 mice
T3 sequence (P05067 672-713 limits assumed): as the sequence (P05067 672-713 limits assumed) above

[8] = system: ISF Aβ; test: ISF Aβ half-life by reverse microdialysis with Compound E in APP/PS1 mice; assay type: in vivo, mouse; details: 3.15 mg/kg
Experimental: The contralateral hippocampus was used for this experiment. […] Aβ levels within the ISF were measured for an additional 5 hours. The single logarithmic plot was made from Aβ levels and extrapolated the half-life of ISF Aβ.

[9] = system: Aβ40 and Aβ42; test: Thioflavin T Aβ fibrillization assay; details: 5, 50, 5000 nM, one hour incubation at 37° C.
Experimental: In vitro amyloid fibrillization assay was performed using synthetic Aβ peptides (rPeptide, Bogart GA) as well as thioflavin-T (Sigma-Aldrich), respectively dissolved in DMSO and in methanol.
DMSO was used as control. The progression of fibrillization was followed every 10 min. for 60 min. at room temperature by measuring the fluorescence intensity at excitation and emission wavelengths of 450 nm and 480 nm, respectively, using an M3 microplate reader. The results were normalized for background using fluorescent reading at time 0 by the software provided by the M3 plate reader.

[10] = system: pre-existing Aβ42 oligomers (Gluc halves fused with Aβ42); test: Oligomer dissociation assay, split-luciferase, conditioned media; assay type: biochemical; details: added to conditioned media, 10 nM, 10 μM or 1 mM, 12 hours
Experimental: (§1) Aβ agglomeration and oligomer dissociation assays were performed in vitro using an Aβ splitluciferase complementation assay. […] The conditioned media from these cells was collected, 10 nM of coelenterazine was added and the luciferase activity was measured using a Wallac 1420 (PerkinElmer). […] The luciferase activity was measured.

[11] = system: amyloid deposits; test: Immunohistochemical amyloid burden and density of amyloid deposits in APP/PS1 mice; assay type: in vivo, mouse; details: one week of treatment
[12] = molecular target: T4, ISF Aβx-40 (Homo sapiens, UniProt P05067); test: In vivo microdialysis of ISF in APP/PS1 mice, Aβx-40; set-up: species or system mouse; details: 3.15 mg/kg i.p. daily for one week
T4 construct: commercially available kits BNT77/BA27 for Aβ40 or BNT77/BC05 for Aβx-42; from tissue; host or cells: brain extracts (TBS, Triton, SDS) or hippocampal interstitial fluid of APPswe/PS1dE9 mice
T4 sequence (P05067 672-711 limits assumed): as the sequence (P05067 672-711 limits assumed) above

[13] = system: ISF Aβx-42 and Aβ oligomers; test: In vivo microdialysis of ISF in APP/PS1 mice, Aβx-42 and Aβ oligomers; set-up: species or system mouse; details: 3.15 mg/kg i.p. daily for one week; compared with ISF Aβx-40
[14] = system: APP/PS1 transgenic mice; test: Morris water maze in APP/PS1 transgenic mice; assay type: in vivo, mouse; details: versus mock treatment
[15] = system: N- and C-terminal fragments of Gaussian luciferase conjugated to Aβ42; test: Aβ split-luciferase complementation assay, oligomer formation in HEK293 cells; assay type: cell-based
Experimental: as §1

[16] = system: monomeric Aβ; test: Immunoblot of 4 kDa Aβ band (6E10, 82E1) in TBS soluble extracts of APP/PS1 mice; assay type: in vivo, mouse; details: one week i.p. treatment
[17] = 3.15 mg/kg, versus PBS controls

CC(C)Cc1ccc(C(C)C(=O)O)cc1 (racemic) [ibuprofen, (RS)-2-(4-(2-methylpropyl)phenyl) propanoic acid]
Cmax [1]: 3.94 ± 1.29 ng/mL | solubility in organic solvents such as ethanol and acetone [2]: readily soluble | solubility in water [2]: < 1000 µg/mL

O=C(O)c1cc(=O)c2c(OCC(O)COc3cccc4oc(C(=O)O)cc(=O)c34)cccc2o1 [cromolyn sodium, disodium salt of 5,5′-[(2-hydroxytrimethylene)dioxy]bis [4-oxo-4H-1-benzopyran-2-carboxylate]]
formation of Aβ42 fibrils, TEM ([3]; 500 nM): inhibited | formation of Aβ42 fibrils, TEM ([3]; lower concentration (50 nM)): no effect was detected | levels of oligomeric aggregates, 82E1/82E1 ELISA [4]: no changes | content of TBS-soluble Aβx-40 ([5]; 2.1 mg/kg i.p. daily): 39.5% | total level of TBS soluble Aβx-40 after 0.5 M Gdn-HCl ([5]; 2.1 mg/kg): 50.7% | content of TBS-soluble Aβx-40 ([5]; 3.15 mg/kg i.p. daily): 37.1% | total level of TBS soluble Aβx-40 after 0.5 M Gdn-HCl ([5]; 3.15 mg/kg): 44.6% | amount of Aβx-40 extracted in 2% SDS [5, 17]: significantly decreased | amount of Aβx-40 extracted in 2% triton [5, 17]: significantly decreased | binding to Aβ peptides [6]: binds to Aβ peptides | content of TBS-soluble Aβx-42 ([7]; 2.1 mg/kg i.p. daily): 40.9% | total level of TBS soluble Aβx-42 after 0.5 M Gdn-HCl ([7]; 2.1 mg/kg): 63.3% | content of TBS-soluble Aβx-42 ([7]; 3.15 mg/kg i.p. daily): 46.2% | total level of TBS soluble Aβx-42 after 0.5 M Gdn-HCl ([7]; 3.15 mg/kg): 76.1% | amount of Aβx-42 extracted in 2% SDS [7, 17]: significantly decreased | amount of Aβx-42 extracted in 2% triton [7, 17]: significantly decreased | shortening of half-life of ISF Aβ versus control [8]: about 50% | time after Compound E at which ISF Aβ levels started to decrease [8]: 2 h | Aβ40 and Aβ42 fibrillization, thioflavin T [9]: inhibited Aβ fibril formation in vitro at a nanomolar concentration | luminescence signal, pre-existing oligomers [10]: failed to impact the luminescence signal | amyloid burden and density of amyloid deposits [11]: remained unaffected | ISF Aβx-40 level [12]: 283 pM | decrease of ISF Aβx-40 level [12]: 30% | ISF Aβx-42 and Aβ oligomers [13]: performed similarly | memory capabilities in the Morris water maze tests [14]: prevented lowering memory capabilities | concentration at which the effect on luminescence could be detected [15]: above 10 μM | luminescence signal, oligomer formation ([15]; 10 nM, 10 μM or 1 mM, 12 hours): significantly decreased the luminescence signal in a dose-dependent manner | water solubility [2]: water soluble | amounts of monomeric Aβ, 4 kDa band [16]: decreased
